The values below come from US8278319B2, “Substituted spiroamine compounds” (Gruenenthal GmbH, priority 2008, dated 2012).

One assay has as its target T1, human B1R (Homo sapiens, UniProt P46663).
T1 construct: expressed in transfected cells; host or cells: CHO K1 cells
T1 sequence (P46663 1-353): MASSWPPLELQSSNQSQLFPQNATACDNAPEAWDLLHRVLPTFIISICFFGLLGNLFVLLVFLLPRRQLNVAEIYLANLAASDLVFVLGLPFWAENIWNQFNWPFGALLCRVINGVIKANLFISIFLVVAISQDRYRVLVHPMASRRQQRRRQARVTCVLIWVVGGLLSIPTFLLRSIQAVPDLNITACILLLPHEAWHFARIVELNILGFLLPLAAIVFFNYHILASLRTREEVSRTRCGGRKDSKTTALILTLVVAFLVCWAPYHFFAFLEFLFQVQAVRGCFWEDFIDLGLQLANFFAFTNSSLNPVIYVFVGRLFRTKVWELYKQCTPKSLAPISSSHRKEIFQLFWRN
Nature of the assay: Functional investigation on the bradykinin receptor 1 (B1R), FLIPR Ca2+ assay, hB1R cells. In kind it is cell-based. To be noted: % inhibition human B1R at 10 μM; CHO K1 cells transfected with human B1R; agonist Lys-Des-Arg9 bradykinin at EC80; read-out: % Inh. (hum. B1R) 10 μM. The procedure:
(§1) The agonistic or antagonistic action of substances can be quantified on the bradykinin receptor 1 (B1R) of the human and rat species with ectopically expressing cell lines (CHO K1 cells) and with the aid of a Ca^2+-sensitive dye (Fluo-4) using a fluorescent imaging plate reader (FLIPR). The indication in % activation is based on the Ca^2+ signal after addition of Lys-Des-Arg^9 bradykinin (0.5 nM) or Des-Arg^9 bradykinin (100 nM). Antagonists lead to a suppression of the Ca^2+ influx following administration of the agonist. The % inhibition in comparison with the maximum achievable inhibition is indicated.
(§2) The agonistic or antagonistic action of substances can be determined on the bradykinin 1 receptor (B1R) of the human and rat species with the following assay. According to this assay, the Ca^2+ inflow through the channel is quantified with the aid of a Ca^2+-sensitive dye (Fluo-4 type, Molecular Probes Europe BV, Leiden, The Netherlands) in a fluorescent imaging plate reader (FLIPR, Molecular Devices, Sunnyvale, USA).
(§3) Chinese hamster ovary cells (CHO K1 cells) which are stably transfected with the human B1R gene (hB1R cells) or the B1R gene of the rat (rB1R cells) are used. For functional investigations, these cells are plated-out onto black 96-well plates with a clear base (BD Biosciences, Heidelberg, Germany or Greiner, Frickenhausen, Germany) in a density of 20,000-35,000 cells/well. Overnight, the cells are incubated at 37° C. and 5% CO2 in culture medium (hB1R cells: Nutrient Mixture Ham's F12, Gibco Invitrogen GmbH, Karlsruhe, Germany or DMEM, Sigma-Aldrich, Taufkirchen, Germany; rB1R cells: D-MEM/F12, Gibco Invitrogen, Karlsruhe, Germany) with 10 vol. % FBS (foetal bovine serum, Gibco Invitrogen GmbH, Karlsruhe, Germany or PAN Biotech GmbH, Aidenbach, Germany). On the following day the cells are loaded with 2.13 μM Fluo-4 (Molecular Probes Europe BV, Leiden, The Netherlands) in HBSS buffer (Hank's buffered saline solution, Gibco Invitrogen GmbH, Karlsruhe, Germany) with 2.5 mM probenecid (Sigma-Aldrich, Taufkirchen, Germany) and 10 mM HEPES (Sigma-Aldrich, Taufkirchen, Germany) for 60 min at 37° C. The plates are the washed twice with HBSS buffer, and HBSS buffer which additionally contains 0.1% BSA (bovine serum albumin; Sigma-Aldrich, Taufkirchen, Germany), 5.6 mM glucose and 0.05% gelatine (Merck KGaA, Darmstadt, Germany) is added. After a further incubation of 20 minutes at room temperature, the plates are inserted into the FLIPR for Ca^2+ measurement. Alternatively they are washed with buffer A (15 mM HEPES, 80 mM NaCl, 5 mM KCl, 1.2 mM CaCl2, 0.7 mM MgSO4, 2 g/l glucose, 2.5 mM probenecid) and loaded with buffer A with added 2.5 μM Fluo-4 and 0.025% Pluronic F127 (Sigma-Aldrich, Taufkirchen, Germany). The cells are then washed twice with buffer A and incubated for 30 minutes with buffer A, which additionally contains 0.05% BSA and 0.05% gelatine, at room temperature and then used for Ca^2+ measurement in the FLIPR.
(§4) The Ca^2+-dependent fluorescence is measured here before and after addition of substances (λex=488 nm, λem=540 nm). The quantification is performed by measuring the highest fluorescence intensity (FC, fluorescence counts) over time.
(§5) The FLIPR protocol comprises two additions of substance. Test substances (10 μM) are first pipetted onto the cells and the Ca^2+ inflow is compared with the control (hB1R: Lys-Des-Arg^9 bradykinin>=50 nM; rB1R: Des-Arg^9 bradykinin 10 μM). The value in % activation based on the Ca^2+ signal after addition of Lys-Des-Arg^9 bradykinin (>=50 nM) or Des-Arg^9 bradykinin (10 μM) is obtained therefrom. After incubation for 10-20 minutes, Lys-Des-Arg^9 bradykinin (hB1R) or Des-Arg^9 bradykinin (rB1R) is applied in the EC80 concentration and the inflow of Ca^2+ is likewise determined. Antagonists lead to a suppression of the Ca^2+ inflow. The % inhibition in comparison with the maximum achievable inhibition is calculated. […]

Another assay deals with T2, rat B1R (Rattus norvegicus, UniProt P97583).
T2 construct: expressed in transfected cells; host or cells: CHO K1 cells
T2 sequence (P97583 1-337): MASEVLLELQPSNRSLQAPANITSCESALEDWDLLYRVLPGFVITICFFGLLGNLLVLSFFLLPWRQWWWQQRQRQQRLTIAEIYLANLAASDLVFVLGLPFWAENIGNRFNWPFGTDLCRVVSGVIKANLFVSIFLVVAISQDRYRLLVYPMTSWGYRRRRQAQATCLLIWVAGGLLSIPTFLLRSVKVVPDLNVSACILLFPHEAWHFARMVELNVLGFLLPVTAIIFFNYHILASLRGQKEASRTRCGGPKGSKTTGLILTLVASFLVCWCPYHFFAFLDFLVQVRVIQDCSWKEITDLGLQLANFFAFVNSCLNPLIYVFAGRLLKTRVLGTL
Nature of the assay: Functional investigation on the bradykinin receptor 1 (B1R), FLIPR Ca2+ assay, rB1R cells. To be noted: % inhibition rat B1R at 10 μM; CHO K1 cells transfected with rat B1R; agonist Des-Arg9 bradykinin at EC80; read-out: % Inh. (rat B1R) 10 μM. The class given is cell-based. The procedure: as §1, §2, §3, §4, §5

For `COc1cc(C)c(S(=O)(=O)N2CCCC[C@H]2COCC(=O)N2CCC3(CC2)CCC(c2ccccc2)(N2CCC2)CC3)c(C)c1` [Compound 12, 1-(9-(Azetidin-1-yl)-9-phenyl-3-azaspiro[5.5]undecan-3-yl)-2-(((S)-1-(4-methoxy-2,6-dimethylphenylsulfonyl)piperidin-2-yl)methoxy)ethanone], the inhibition at 10 µM was found to be 100% on human B1R and 102% on rat B1R.
Take `COc1cc(C)c(S(=O)(=O)N2CCCC[C@H]2COCC(=O)N2CCC3(CC2)CCC(c2ccccc2)(N2CC(F)(F)C2)CC3)c(C)c1` [Compound 13, 1-(9-(3,3-Difluoroazetidin-1-yl)-9-phenyl-3-azaspiro[5.5]undecan-3-yl)-2-(((S)-1-(4-methoxy-2,6-dimethylphenylsulfonyl)piperidin-2-yl)methoxy)ethanone]: the figures for the inhibition at 10 µM on human B1R and at rat B1R were 86% and 104%, respectively.
